Results on 2 compounds are retold here after patent US20100311877A1, “NOVEL TRIAZINE DERIVATIVE, ULTRAVIOLET ABSORBER, AND RESIN COMPOSITION” (FUJIFILM Corporation, priority 2009, published 2010).

Data set [1] in a line: Measurement of pKa (perchloric acid titration, absorption spectrum). In kind it is physicochemical. The note with it: in acetonitrile, 70% perchloric acid (acetic acid as solvent) added dropwise; ratio of triazine-free compound and proton adduct from absorbance at λmax. The protocol:
Exemplified compound (1) was dissolved in acetonitrile to give its absorption coefficient of 1. […] At that time, a solution absorption spectrum was measured and a ratio of a triazine-free compound and a proton adduct at each pH was computed from the absorbance at λmax. The value of pKa was determined from a point at which the ratio became 1. […] The absorption spectrum was measured using a spectrophotometer “UV-3600” (trade name; product of Shimadzu Corp), while pH was measured using a pH meter “H[…]” (trade name; product of Toa Denpa Kogyo).

Data set [2] can be described thus: Light resistance of PMMA polymer film (remaining amount after metal halide lamp exposure). As to conditions: 50-μm PMMA film on glass, 0.2 mass % compound in coating solution, illuminance 90 mW/cm^2, 63° C., humidity 50%, 400 hours after exposure, transmittance at maximum absorption wavelength. In kind it is physicochemical. The protocol: A binder solution was prepared by dissolving 22 mass % of a PMMA resin (“[…] BR-80”, trade name; product of Mitsubishi Rayon) in methylene chloride. A coating solution was then prepared by dissolving 0.2 mass % of Exemplified compound (1) in the resulting binder solution. Using glass as a base material, the resulting coating solution was applied thereto with a 200 μm blade and dried at 100° C. for 10 minutes into a 50-μm thick coating to prepare a film. […] The absorbance of the film was measured with a spectrophotometer “UV-3600” (trade name; product of Shimadzu Corp). The film was exposed to light of a metal halide lamp (“Eye super UV tester”, trade name; product of Iwasaki Electric) under the conditions of illuminance of 90 mW/cm^2, temperature of 63° C., and humidity of 50%. The remaining amount of each compound 400 hours after exposure was measured. The remaining amount was computed in accordance with the following equation: Remaining amount(%)=100×(100-(transmittance after exposure))/(100-(transmittance before exposure)) The transmittance is a value measured at the maximum absorption wavelength of each compound.

In the case of `CCCCCCOc1ccc(-c2nc(-c3ccccc3)nc(-c3ccccc3)n2)c(O)c1` [Comparative compound A], the pKa in data set [1] was -4.9. Moreover, the “Remaining amount (%)” value in data set [2] is reported as 63%.
In the same order, the values of `CCCCCCCCOc1ccc(-c2nc(-c3ccc(C)cc3C)nc(-c3ccc(C)cc3C)n2)c(O)c1` [Comparative compound B] are -4.4 and 21%.
